Measurements: patent US10577363B2, “Substituted piperidine compounds” (EPIZYME, INC., priority 2014, dated 2020)

The molecules below were run against SMYD3 (Homo sapiens (Human), UniProt Q9H7B4) (assay: SMYD3 biochemical assay (SPA, 3H-SAM methylation of MEKK2 protein substrate)). Conditions: Table 1A; IC50 values are an average of n = 1 to n = 50; read-out: SMYD3 Biochem IC50.
Method in brief: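 Tritium incorporation into GST-MEKK2 is counted by scintillation proximity after citric acid bead capture. Native human SMYD3 is preincubated with test compound for 30 min at room temperature at pH 8.0 (Tris-Cl, TCEP, BSG, Tween 20) before 3H-SAM and substrate are added; cold SAM at 100 uM final stops turnover.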
With `O=C(N[C@H]1C[C@H]2CC[C@@H](C1)N2S(=O)(=O)c1cc2oc(=O)[nH]c2cc1Cl)c1cc(C2CC2)on1` [compound 492, N-((1R,3r,5S)-8-((5-chloro-2-oxo-2,3-dihydrobenzo[d]oxazol-6-yl)sulfonyl)-8-azabicyclo[3.2.1]octan-3-yl)-5-cyclopropylisoxazole-3-carboxamide] the IC50 was over 10 µM.
With `C[C@@H]1C[C@@H](NC(=O)c2cc(C3CC3)on2)CCN1S(=O)(=O)c1ccc(N(C)CCN)nc1` [compound 508, N-((2R,4S)-1-((6-((2-aminoethyl)(methyl)amino)pyridin-3-yl)sulfonyl)-2-methylpiperidin-4-yl)-5-cyclopropylisoxazole-3-carboxamide] the IC50 was 0.32 µM.
`C[C@H]1C[C@@H](NC(=O)c2cc(C3CC3)on2)CCN1S(=O)(=O)c1ccc(NCCN)nc1` [compound 509, N-((2S,4S)-1-((6-((2-aminoethyl)amino)pyridin-3-yl)sulfonyl)-2-methylpiperidin-4-yl)-5-cyclopropylisoxazole-3-carboxamide] showed an IC50 of 0.00592 µM.
Molecule `CC(C)CN(C)c1cc(S(=O)(=O)N2CC[C@H](NC(=O)c3cc(C4CC4)on3)C[C@@H]2C)ccn1` [compound 510, 5-cyclopropyl-N-((2S,4S)-1-((2-(isobutyl(methyl)amino)pyridin-4-yl)sulfonyl)-2-methylpiperidin-4-yl)isoxazole-3-carboxamide] has an IC50 of over 10 µM.
Molecule `CC(C)CN(C)c1cc(S(=O)(=O)N2CC[C@@H](NC(=O)c3cc(C4CC4)on3)C[C@@H]2C)ccn1` [compound 511, 5-cyclopropyl-N-((2S,4R)-1-((2-(isobutyl(methyl)amino)pyridin-4-yl)sulfonyl)-2-methylpiperidin-4-yl)isoxazole-3-carboxamide] has an IC50 of over 10 µM.
Molecule `C[C@@H]1C[C@@H](NC(=O)c2cc(C3CC3)on2)CCN1S(=O)(=O)c1ccnc(N(C)CCN)c1` [compound 512, N-((2R,4S)-1-((2-((2-aminoethyl)(methyl)amino)pyridin-4-yl)sulfonyl)-2-methylpiperidin-4-yl)-5-cyclopropylisoxazole-3-carboxamide] has an IC50 of 0.487 µM.
With `C[C@H]1C[C@@H](NC(=O)c2cc(C3CC3)on2)CCN1S(=O)(=O)c1ccc(C#N)nc1` [compound 513, N-((2S,4S)-1-((6-cyanopyridin-3-yl)sulfonyl)-2-methylpiperidin-4-yl)-5-cyclopropylisoxazole-3-carboxamide] the IC50 was 1.09 µM.

Same assay, conditions: read-out: SMYD3 Biochem IC50 (μM)*
Work on `CC(C)CN(C)c1ccc(S(=O)(=O)N2CC[C@@H](NC(=O)c3cc(C4CC4)on3)C[C@@H]2C)cn1` [compound 411, 5-cyclopropyl-N-((2S,4R)-1-((6-(isobutyl(methyl)amino)pyridin-3-yl)sulfonyl)-2-methylpiperidin-4-yl)isoxazole-3-carboxamide] yielded an IC50 of over 10 µM.
Work on `O=C(NC1CC2CCC(C1)N2S(=O)(=O)CC1CCNCC1)c1cc(C2CC2)on1` (stereo not shown) [compound 416, 5-cyclopropyl-N-(8-((piperidin-4-ylmethyl)sulfonyl)-8-azabicyclo[3.2.1]octan-3-yl)isoxazole-3-carboxamide] yielded an IC50 of 0.164 µM.
`N[C@H]1CC[C@H](C(=O)N2CC[C@H](NC(=O)c3cc(C4CC4)on3)[C@@H](CO)C2)CC1` [compound 421, N-((3S,4S)-1-((1r,4S)-4-aminocyclohexane-1-carbonyl)-3-(hydroxymethyl)piperidin-4-yl)-5-cyclopropylisoxazole-3-carboxamide] gave an IC50 of 2.51 µM.
`N[C@H]1CC[C@H](C(=O)N2CC[C@H](NC(=O)c3cc(C4CC4)on3)[C@H](CO)C2)CC1` [compound 422, N-((3R,4S)-1-((1r,4R)-4-aminocyclohexane-1-carbonyl)-3-(hydroxymethyl)piperidin-4-yl)-5-cyclopropylisoxazole-3-carboxamide] was tested, and the IC50 was 1.94 µM.
In the case of `C[C@@H]1C[C@@H](NC(=O)c2cc(C3CC3)on2)CCN1C(=O)c1ccc2[nH]cnc2c1` [compound 425, N-((2R,4S)-1-(1H-benzo[d]imidazole-5-carbonyl)-2-methylpiperidin-4-yl)-5-cyclopropylisoxazole-3-carboxamide], the IC50 is reported as over 10 µM.
`C[C@H]1C[C@H](NC(=O)c2cc(C3CC3)on2)CCN1C(=O)c1ccc2[nH]cnc2c1` [compound 426, N-((2S,4R)-1-(1H-benzo[d]imidazole-5-carbonyl)-2-methylpiperidin-4-yl)-5-cyclopropylisoxazole-3-carboxamide] showed an IC50 of over 10 µM.
`N[C@H]1CC[C@@H](C(=O)N2[C@@H]3CC[C@H]2C[C@@H](NC(=O)c2cc(C4CC4)on2)C3)CC1` [compound 429, N-((1R,3R,5S)-8-((1s,4S)-4-aminocyclohexane-1-carbonyl)-8-azabicyclo[3.2.1]octan-3-yl)-5-cyclopropylisoxazole-3-carboxamide] was tested, and the IC50 was 0.351 µM.
Molecule `NCCCS(=O)(=O)N1CCC(NC(=O)c2cc(C3CC3)on2)CC12CCC2` (stereo not shown) [compound 445, N-(5-((3-aminopropyl)sulfonyl)-5-azaspiro[3.5]nonan-8-yl)-5-cyclopropylisoxazole-3-carboxamide] has an IC50 of 0.13 µM.
Work on `CNc1ccc(S(=O)(=O)N2CC[C@H](NC(=O)c3cc(C4CC4)on3)C[C@H]2C)cn1` [compound 447, 5-cyclopropyl-N-((2R,4S)-2-methyl-1-((6-(methylamino)pyridin-3-yl)sulfonyl)piperidin-4-yl)isoxazole-3-carboxamide] yielded an IC50 of over 10 µM.
Work on `CNc1ccc(S(=O)(=O)N2CC[C@@H](NC(=O)c3cc(C4CC4)on3)C[C@@H]2C)cn1` [compound 448, 5-cyclopropyl-N-((2S,4R)-2-methyl-1-((6-(methylamino)pyridin-3-yl)sulfonyl)piperidin-4-yl)isoxazole-3-carboxamide] yielded an IC50 of over 10 µM.
In the case of `CC(C)CNc1ccc(S(=O)(=O)N2CC[C@H](NC(=O)c3cc(C4CC4)on3)C[C@H]2C)cn1` [compound 451, 5-cyclopropyl-N-((2R,4S)-1-((6-(isobutylamino)pyridin-3-yl)sulfonyl)-2-methylpiperidin-4-yl)isoxazole-3-carboxamide], the IC50 is reported as over 10 µM.
`CC(C)CNc1ccc(S(=O)(=O)N2CC[C@@H](NC(=O)c3cc(C4CC4)on3)C[C@@H]2C)cn1` [compound 452, 5-cyclopropyl-N-((2S,4R)-1-((6-(isobutylamino)pyridin-3-yl)sulfonyl)-2-methylpiperidin-4-yl)isoxazole-3-carboxamide] gave an IC50 of over 10 µM.
Molecule `COCCNc1ccc(S(=O)(=O)N2CC[C@H](NC(=O)c3cc(C4CC4)on3)C[C@H]2C)cn1` [compound 456, 5-cyclopropyl-N-((2R,4S)-1-((6-((2-methoxyethyl)amino)pyridin-3-yl)sulfonyl)-2-methylpiperidin-4-yl)isoxazole-3-carboxamide] has an IC50 of over 10 µM.
Molecule `C[C@H]1C[C@H](NC(=O)c2cc(C3CC3)on2)CCN1S(=O)(=O)c1ccc(N(C)CCN)nc1` [compound 462, N-((2S,4R)-1-((6-((2-aminoethyl)(methyl)amino)pyridin-3-yl)sulfonyl)-2-methylpiperidin-4-yl)-5-cyclopropylisoxazole-3-carboxamide] has an IC50 of 0.305 µM.
`C[C@H]1C[C@@H](NC(=O)c2cc(C3CC3)on2)CCN1S(=O)(=O)c1ccc(Cl)cn1` [compound 466, N-((2S,4S)-1-((5-chloropyridin-2-yl)sulfonyl)-2-methylpiperidin-4-yl)-5-cyclopropylisoxazole-3-carboxamide] gave an IC50 of 0.121 µM.
In the case of `COC(=O)C1CN(C(=O)[C@H]2CC[C@H](N)CC2)CC(C)C1NC(=O)c1cc(C2CC2)on1` (stereo partly shown) [compound 468, methyl 1-((1r,4r)-4-aminocyclohexane-1-carbonyl)-4-(5-cyclopropylisoxazole-3-carboxamido)-5-methylpiperidine-3-carboxylate], the IC50 is reported as 1.22 µM.
With `N[C@H]1CC[C@H](C(=O)N2CCC(NC(=O)c3cc(C4CC4)on3)C(c3ccccc3)C2)CC1` (stereo partly shown) [compound 469, N-(1-((1r,4r)-4-aminocyclohexane-1-carbonyl)-3-phenylpiperidin-4-yl)-5-cyclopropylisoxazole-3-carboxamide] the IC50 was 6.28 µM.
In the case of `NCCCS(=O)(=O)N1CCC(NC(=O)c2cc(C3CC3)on2)C(c2ccccc2)C1` (stereo not shown) [compound 470, N-(1-((3-aminopropyl)sulfonyl)-3-phenylpiperidin-4-yl)-5-cyclopropylisoxazole-3-carboxamide], the IC50 is reported as 2.76 µM.
Work on `COC(=O)C1CN(C(=O)CCCN)CC(C)C1NC(=O)c1cc(C2CC2)on1` (stereo not shown) [compound 471, methyl 1-(4-aminobutanoyl)-4-(5-cyclopropylisoxazole-3-carboxamido)-5-methylpiperidine-3-carboxylate] yielded an IC50 of 5.76 µM.
With `CC(C)CN(C)c1ncccc1S(=O)(=O)N1C2CCCC1CC(NC(=O)c1cc(C3CC3)on1)C2` (stereo not shown) [compound 472, 5-cyclopropyl-N-(9-((2-(isobutyl(methyl)amino)pyridin-3-yl)sulfonyl)-9-azabicyclo[3.3.1]nonan-3-yl)isoxazole-3-carboxamide] the IC50 was over 10 µM.
For `CC(C)CNc1ncccc1S(=O)(=O)N1C2CCCC1CC(NC(=O)c1cc(C3CC3)on1)C2` (stereo not shown) [compound 473, 5-cyclopropyl-N-(9-((2-(isobutylamino)pyridin-3-yl)sulfonyl)-9-azabicyclo[3.3.1]nonan-3-yl)isoxazole-3-carboxamide], the IC50 was 5.97 µM.
For `CC(C)CNc1ncccc1S(=O)(=O)N1CC[C@H](NC(=O)c2cc(C3CC3)on2)C[C@@H]1C` [compound 474, 5-cyclopropyl-N-((2S,4S)-1-((2-(isobutylamino)pyridin-3-yl)sulfonyl)-2-methylpiperidin-4-yl)isoxazole-3-carboxamide], the IC50 was 2.74 µM.
`NCCNc1ncccc1S(=O)(=O)N1C2CCCC1CC(NC(=O)c1cc(C3CC3)on1)C2` (stereo not shown) [compound 476, N-(9-((2-((2-aminoethyl)amino)pyridin-3-yl)sulfonyl)-9-azabicyclo[3.3.1]nonan-3-yl)-5-cyclopropylisoxazole-3-carboxamide] was tested, and the IC50 was 1.31 µM.
Work on `N[C@H]1CC[C@@H](C(=O)N2[C@@H]3CC[C@H]2C[C@H](NC(=O)c2cc(C4CC4)on2)C3)CC1` [compound 486, N-((1R,3S,5S)-8-((1s,4S)-4-aminocyclohexane-1-carbonyl)-8-azabicyclo[3.2.1]octan-3-yl)-5-cyclopropylisoxazole-3-carboxamide] yielded an IC50 of over 10 µM.
